Source: paper PMC4916434, “Evaluation of the inhibition potential of plumbagin against cytochrome P450 using LC-MS/MS and cocktail approach” (Scientific Reports, 2016)

Assays:
[1] = rat, in vivo, po, 100 mg/kg; cited from earlier work
CYP2D1 = biological target: T1, CYP2D1 (Rattus norvegicus, UniProt P10633); type: in vitro ADME
T1 construct: consisting of pooled HLMs (0.5 mg/ml) or RLMs (1 mg/ml) and an NADPH-regenerating system; from tissue; host or cells: rat liver microsomes prepared in house
T1 sequence (P10633 1-504): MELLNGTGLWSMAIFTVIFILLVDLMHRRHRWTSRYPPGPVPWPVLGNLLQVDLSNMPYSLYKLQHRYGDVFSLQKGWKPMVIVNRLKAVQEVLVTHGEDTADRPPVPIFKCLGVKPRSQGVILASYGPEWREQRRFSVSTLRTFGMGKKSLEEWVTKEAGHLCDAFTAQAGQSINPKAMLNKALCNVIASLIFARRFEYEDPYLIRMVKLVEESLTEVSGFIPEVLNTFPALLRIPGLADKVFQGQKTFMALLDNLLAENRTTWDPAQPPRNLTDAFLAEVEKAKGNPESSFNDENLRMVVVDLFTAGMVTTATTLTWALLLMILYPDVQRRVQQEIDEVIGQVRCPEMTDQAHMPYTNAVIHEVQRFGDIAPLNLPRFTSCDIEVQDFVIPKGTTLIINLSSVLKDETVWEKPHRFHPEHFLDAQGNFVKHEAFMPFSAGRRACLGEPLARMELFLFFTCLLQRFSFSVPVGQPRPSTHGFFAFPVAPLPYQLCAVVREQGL
Description: (§1) In this study, the rats were fasted overnight and killed by cervical dislocation before removal of the liver. The liver was excised, rinsed with ice-cold saline (0.9% NaCl w/v), weighed and homogenized in a […] Tris/KCl buffer (pH 7.4). Subsequently, the homogenate was centrifuged at 10,000 × g at 4 °C for 30 min. The supernatant was then centrifuged at 105,000 × g at 4 °C for 60 min. The pellet was reconstituted with […] Tris/KCl buffer (pH 7.4) and stored at −150 °C until use. The protein concentration of the liver microsomes was determined by a protein quantitative assay using bicinchoninic acid[22].
(§2) Microsomal incubation was carried out at 37 °C in a mixture of 200 μl in 0.05 M Tris/HCl buffer (pH 7.4) consisting of pooled HLMs (0.5 mg/ml) or RLMs (1 mg/ml) and an NADPH-regenerating system including MgCl2 (5 mM), G6P (10 mM), G6PDH (0.4 U/ml) and NADP (1 mM). Substrates were added into the incubation mixture and obtained the final concentrations (10 μM phenacetin for CYP1A2, 20 μM bupropion for CYP2B1/6, 20 μM tolbutamide for CYP2C9/11, 5 μM dextromethorphan for CYP2D1/6, 20 μM chlorzoxazone for CYP2E1 and 10 μM midazolam for CYP3A2/4), which were close to Km respectively. The proportion of organic solvent was not higher than 1% (v/v) in the incubation mixture. After pre-incubation for 5 min, the reaction was initiated by addition of NADP. Incubations were performed for 20 min, stopped by adding 200 μl ice-cold acetonitrile. And then 20 μl internal standard solution was added (3-acetamidophenol 2 μg/ml, chlorpropamide 2 μg/ml and mebendazole 2 μg/ml). The solution was mixed thoroughly for 3 min and centrifuged for 10 min at 16,000 × g at 4 °C. The supernatant (60 μl) was transferred to autosampler vials, and 2 μl was injected into LC-MS/MS system.
(§3) The IC50 (concentration of inhibitor to cause 50% inhibition of original enzyme activity) values were determined with the same incubation condition above. The specific concentrations of plumbagin were ranged from 0.1 μM to 50 μM. The IC50 values were calculated by plotting relative activities over the logarithm of plumbagin concentrations using GraphPad Prism 5.0 (GraphPad software Inc., CA, USA).
(§4) Cocktail probe substrates were then added and incubated for 20 min. Reactions were stopped with 200 μl ice-cold acetonitrile. The samples were treated according to the microsomal incubation method and then injected into LC-MS/MS for analysis.
(§5) Kinetic studies were performed for determining the types of inhibition on CYP by plumbagin. Pooled HLMs (0.5 mg/ml) or RLMs (1 mg/ml) with plumbagin (1 μM, 2 μM, 5 μM and 10 μM) were incubated in 0.05 M Tris/HCl buffer (pH 7.4) for 20 min at 37 °C. A series of concentrations for cocktail probe substrates were used: 2.5–20 μM phenacetin for CYP1A2; 5–40 μM bupropion for CYP2B1/6; 5–40 μM tolbutamide for CYP2C9/11; 1.25–10 μM dextromethorphan for CYP2D1/6; 5–40 μM chlorzoxazone for CYP2E1; 2.5–80 μM midazolam for CYP3A2; and 0.625–5 μM midazolam for CYP3A4. Enzyme kinetics as well as statistical analysis were performed using GraphPad Prism 5.0.
(§6) All data were presented as mean ± SD. The IC50 values were fitted by non-linear regression analysis using GraphPad Prism 5.0. The kinetic parameters were obtained by fitting velocity data to kinetic models (Michaelis-Menten) using GraphPad Prism 5.0. The Lineweaver-Burk Plot (the reciprocal of reaction velocities versus the reciprocal of substrates concentrations) was used to determine the quality of fit to a specific inhibition model. The inhibition constant (Ki) was obtained by a secondary plot using the slopes of the primary Lineweaver-Burk Plot (Km/Vmax versus inhibitor concentrations). αKi was obtained from a secondary plot using the y-intercepts of the Lineweaver-Burk plot (1/Vmax versus inhibitor concentrations). All results were analyzed in quadruplicate. One-way analysis of variance was used to estimate the significance of differences. […]

CYP3A2 = biological target: T2, CYP3A2 (Rattus norvegicus, UniProt P05183); type: in vitro ADME
T2 construct: consisting of pooled HLMs (0.5 mg/ml) or RLMs (1 mg/ml) and an NADPH-regenerating system; from tissue; host or cells: rat liver microsomes prepared in house
T2 sequence (P05183 1-504): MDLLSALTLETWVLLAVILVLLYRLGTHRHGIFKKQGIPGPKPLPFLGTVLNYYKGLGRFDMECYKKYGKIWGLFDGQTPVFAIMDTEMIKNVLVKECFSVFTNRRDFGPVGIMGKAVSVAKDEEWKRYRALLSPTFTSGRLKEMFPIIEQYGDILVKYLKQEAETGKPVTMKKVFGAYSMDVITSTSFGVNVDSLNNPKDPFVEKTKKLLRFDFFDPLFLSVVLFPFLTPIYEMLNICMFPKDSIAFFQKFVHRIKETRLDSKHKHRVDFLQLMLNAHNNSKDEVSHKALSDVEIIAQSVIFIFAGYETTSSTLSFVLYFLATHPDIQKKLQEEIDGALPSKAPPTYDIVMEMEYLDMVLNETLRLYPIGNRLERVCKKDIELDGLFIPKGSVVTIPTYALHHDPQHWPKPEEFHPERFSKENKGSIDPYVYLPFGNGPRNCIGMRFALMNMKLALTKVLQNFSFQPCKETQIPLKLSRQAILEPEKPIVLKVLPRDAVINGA
Description: as §1, §2, §3, §4, §5, §6

CC1=CC(=O)c2c(O)cccc2C1=O [plumbagin, 5-hydroxy-2-methyl-1,4-naphthoquinone]
Cmax [1]: 1860 nM
area under the curve (AUC) in the plasma [1]: 271.9 µg·min/mL
half-life (t1/2) in the plasma [1]: 17.13 h
peak concentration (Cmax) in the plasma [1]: 350 ng/mL
IC50 (CYP2D1): 6.17 µM
Ki (CYP2D1): 9.49 µM
Type of inhibition (CYP2D1): mixed-type
α (CYP2D1): 0.69
αKi (CYP2D1): 13.79 µM
IC50 (CYP3A2): 8.47 µM
